The nature of series [1]: Metabolic stability in human liver microsomes (with UDPGA). The conditions noted are these: for Cli: human liver microsomes 0.5 mg/mL, 5 μM, cofactors + UDPGA (Phase II stability). (Microsomes from liver hold many membrane-bound enzymes, among them those of drug oxidation.)
Description: (§1) After the pre-incubation period, the reaction was started by adding the cofactor mixture (NADP, Glc6P, and Glc6P-DH in 2% sodium bicarbonate) and UDPGA. Samples (25 μL) were taken at times of 0, 10, 20, 30, 45, and 60 min and then mixed with 150 μL of ACN to stop the reaction. After centrifugation, the supernatants were analyzed by LC–MS/MS. A control sample without cofactors was included in the assay in order to check the stability of the test compounds in the matrix after 60 min. 7-Ethoxycoumarin (7-EC) and 7-hydroxycoumarin (7-OHC) were contemporarily tested as reference standards for the Phase I and Phase II reactions, respectively.
Series [2] can be described thus: Metabolic stability in mouse liver microsomes (with UDPGA). Conditions: for Cli: mouse liver microsomes 0.5 mg/mL, 5 μM, cofactors + UDPGA (Phase II stability).
Description: as §1
In series [3] the target is T1, PCSK9/LDLR (Homo sapiens, UniProt Q8NBP7).
T1 construct: purchased CircuLex (CycLex Co., Nagano, Japan)
The series is described as follows: In vitro PCSK9-LDLR binding assay (CircuLex/CycLex kit). The conditions noted are these: for IC50: mean ± SD, three independent experiments, Hill slope fixed at −1. How it is done: Diimidazole analogues (0.1–1 × 10^6 nM) were tested using the in vitro PCSK9-LDLR binding assay (CycLex Co., Nagano, Japan) following the manufacturer’s instructions and with the conditions already optimized.[15] Briefly, the plates were pre-coated with a recombinant LDLR-AB domain containing the binding site of PCSK9. Before starting the assay, the tested analogues and/or the vehicle in DMSO were sonicated at 37 °C, diluted in the reaction buffer, and added in microcentrifuge tubes. Afterward, the reaction mixtures were added in each well of the microplate, and the reaction was started by adding His-tagged PCSK9 solution (3 μL). The microplate was allowed to incubate for 2 h at room-temperature (RT) shaking at 300 rpm on an orbital microplate shaker. Subsequently, the wells were washed 4 times with the wash buffer. After the last wash, the biotinylated anti-His-tag monoclonal antibody (100 μL) was added and incubated at RT for 1 h shaking at 300 rpm. After incubation, the wells were washed 4 times with wash buffer. After the last wash, 100 μL of HRP-conjugated streptavidin were added, and the plate was incubated for 20 min at RT. After incubation, the wells were washed 4 times with wash buffer. Finally, the substrate reagent (tetra-methylbenzidine) was added, and the plate was incubated for 10 min at RT shaking at ca. 300 rpm. The reaction was stopped with 2.0 M sulfuric acid, and the absorbance at 450 nm was measured using a Synergy H1 fluorescent plate reader (Winooski, VT, USA).
All the data sets were checked for normal distribution by D’Agostino and Pearson tests. Since they are all normally disturbed with p values of […], we proceeded with statistical analyses of one-way ANOVA followed by Tukey’s post hoc test using Graphpad Prism 9 (San Diego, CA, USA). Values were reported as means ± s.d.; p values of <0.05 were considered to be significant. The IC50 values of samples inhibiting PCSK9-LDLR binding were evaluated by using the log(inhibitor) vs response model of GraphPad Prism 9 (San Diego, CA, USA). This model assumes that the dose–response curves has a standard slope, equal to a Hill slope (or slope factor) of −1.0. This is the slope expected when a ligand binds to a receptor following the law of mass action and is the slope expected of a dose–response curve when the second messenger created by receptor stimulation binds to its receptor by the law of mass action (https://graphpad.com/guides/prism/latest/curvefitting/reg_dr_inhibit.htm).

The target of series [4] is T2, HMG-CoAR (catalytic domain) (Homo sapiens, UniProt P04035).
T2 construct: and finally, HMG-CoAR (catalytic domain) (2 μL); purchased Sigma Aldrich
T2 sequence (P04035 426-888 limits assumed): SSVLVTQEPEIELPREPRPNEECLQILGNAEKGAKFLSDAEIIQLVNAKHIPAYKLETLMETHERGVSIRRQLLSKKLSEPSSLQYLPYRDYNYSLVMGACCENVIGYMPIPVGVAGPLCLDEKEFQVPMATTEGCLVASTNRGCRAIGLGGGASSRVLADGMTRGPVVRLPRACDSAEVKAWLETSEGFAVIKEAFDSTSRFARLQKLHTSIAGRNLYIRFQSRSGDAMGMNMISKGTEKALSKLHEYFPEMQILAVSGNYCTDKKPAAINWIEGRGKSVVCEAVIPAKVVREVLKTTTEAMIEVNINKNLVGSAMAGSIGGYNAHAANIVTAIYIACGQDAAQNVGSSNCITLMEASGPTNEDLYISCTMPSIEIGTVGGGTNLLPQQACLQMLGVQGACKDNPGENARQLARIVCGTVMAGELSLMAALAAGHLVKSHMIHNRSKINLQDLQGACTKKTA
The series is described as follows: HMG-CoAR activity assay (Sigma kit, NADPH oxidation at 340 nm). Type of series: biochemical. Conditions: 10–500 μM tested, 37 °C. How it is done:
The experiments were carried out following the manufacturer’s instructions and optimized protocol.[43] The assay buffer, NADPH, substrate solution, and HMG-CoAR were provided in the HMG-CoAR Assay Kit (Sigma Aldrich SRL, Milan, Italy). The experiments were carried out following the manufacturer’s instructions at 37 °C. In particular, each reaction (200 μL) was prepared adding the reagents in the following order: 1× assay buffer, a 10–500 μM dose of sonicated Dim analogues or vehicle (C), NADPH (4 μL), the substrate solution (12 μL), and finally, HMG-CoAR (catalytic domain) (2 μL). Subsequently, the samples were mixed, and the absorbance at 340 nm was read by a microplate reader (Synergy H1, Winooski, VT, USA) at times of 0 and 10 min. The HMGCoAR-dependent oxidation of NADPH and the inhibition properties of the peptides were measured by absorbance reduction, which is directly proportional to enzyme activity.

A short description of a further series: Solubility in PBS pH 7.4. Type of series: physicochemical. The conditions noted are these: PBS buffer, pH 7.4, PBS, 37 °C. How it is done:
Solubility was tested after incubation of the test item at 200 μM and 500 μM in PBS buffer pH 7.4 starting from an initial DMSO solution of Dim22 100 mM. Samples in duplicates were incubated at 37 °C for 90 min, were then centrifuged at 12500 rpm for 5 min. Supernatants were analyzed in LC/MS together with a solution of the compound in ACN.

The target in series [5] is T1, PCSK9/LDLR. The conditions noted are these: cited from earlier work.
The target in series [6] is T2, HMG-CoAR (catalytic domain). The arrangement: method as in doi:10.1016/j.jff.2017.02.009. Conditions: cited from earlier work.

≈ marks a conversion by molar mass, not a printed value. Where “and” joins values, the source holds several entries; their conditions need not be identical. Identical values can stand only once. Like-named read-outs stand apart in the source and are kept apart here.

T1 sequence (Q8NBP7 153-692): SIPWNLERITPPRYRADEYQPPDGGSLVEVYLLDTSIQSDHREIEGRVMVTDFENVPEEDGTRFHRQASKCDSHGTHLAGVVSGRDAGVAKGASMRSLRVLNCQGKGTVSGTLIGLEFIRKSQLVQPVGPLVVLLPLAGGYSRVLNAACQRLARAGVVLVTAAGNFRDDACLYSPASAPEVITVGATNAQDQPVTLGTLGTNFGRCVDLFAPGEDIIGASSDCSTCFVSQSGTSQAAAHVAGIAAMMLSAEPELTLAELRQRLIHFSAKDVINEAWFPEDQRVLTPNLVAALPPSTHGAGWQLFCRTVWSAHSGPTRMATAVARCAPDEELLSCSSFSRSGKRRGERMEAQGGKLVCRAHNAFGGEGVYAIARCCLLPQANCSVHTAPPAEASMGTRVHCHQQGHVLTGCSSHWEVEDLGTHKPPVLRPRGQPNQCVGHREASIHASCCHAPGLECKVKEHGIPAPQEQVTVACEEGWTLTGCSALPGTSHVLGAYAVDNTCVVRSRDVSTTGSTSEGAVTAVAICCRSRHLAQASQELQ
T1 sequence (Q8NBP7 31-152 limits assumed): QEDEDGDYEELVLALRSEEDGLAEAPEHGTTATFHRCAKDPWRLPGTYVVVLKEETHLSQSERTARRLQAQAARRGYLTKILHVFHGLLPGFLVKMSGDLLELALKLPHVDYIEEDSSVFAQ

Take `CCOc1ccc2ccc(=O)oc2c1` [7-EC, 7-Ethoxycoumarin, reference compound]: the Cli in series [1] is 46.1 μL/min/mg protein; in series [2] it was 290.9 μL/min/mg protein.
For the molecule `O=c1ccc2ccc(O)cc2o1` [7-OHC, 7-hydroxycoumarin, reference compound], the figures for the Cli in series [1] and in series [2] were 390.0 μL/min/mg protein and 533.3 μL/min/mg protein, respectively.
As for `CNCCCCCn1cncc1-c1ncc(-c2ccc3ccccc3c2)n1CCCC(C)(C)C` [Dim2, 5-(1-(4,4-Dimethylpentyl)-5-(naphthalen-2-yl)-1H,3′H-[2,4′-biimidazol]-3′-yl)-N-methylpentan-1-amine], the IC50 at PCSK9/LDLR [3] is 1990 ± 1650 nM; in series [4], 40500 ± 15200 nM. Also, the “PCSK9 activity, times less active than Dim16” value at PCSK9/LDLR [3] (ratio versus Dim16) is reported as “about 2500”.
Take `CNCCCCCn1cncc1-c1ncc(-c2ccc3ccccc3c2)n1CC1CCCCC1` [Dim21, 5-(1-(Cyclohexylmethyl)-5-(naphthalen-2-yl)-1H,3′H-[2,4′-biimidazol]-3’-yl)-N-methylpentan-1-amine]: the IC50 at PCSK9/LDLR [3] was determined as 4500 ± 500 nM; in series [4] it was 38400 ± 12700 nM.
By solubility is commonly meant the concentration that dissolves in the medium under given conditions. High values mean a readily soluble substance, low ones a poorly soluble substance. Consider `CNCCCCCn1c(-c2ncc(-c3ccc4ccccc4c3)n2CC2CCCCC2)cnc1I` [Dim22, 5-(1-(Cyclohexylmethyl)-2′-iodo-5-(naphthalen-2-yl)-1H,3′H-[2,4′-biimidazol]-3′-yl)-N-methylpentan-1-amine], for which the values for the Cli in series [1] and in series [2] were 51.5 μL/min/mg protein and 57.0 μL/min/mg protein, respectively. For the same molecule, the clearance classification result in series [1] (human liver microsomes, classification of Table S4) is reported as “medium–high”; in series [2] (mouse liver microsomes, classification of Table S4) it was “medium–high”. In series [1] (humans), the “non-NADPH-dependent part of the observed metabolism” value came to 50%. The IC50 at PCSK9/LDLR [3] worked out at 1990 ± 2860 nM; in series [4], 36200 ± 5980 nM. Also, in “Solubility in PBS pH 7.4”, the solubility at 90 min is around 10 µM (≈ 5.82 µg/mL). In the series “Solubility in PBS pH 7.4” (90 min), the solubility at 1.5 h worked out at 5.8 µg/mL (≈ 9.97 µM). Further, the “NADPH dependence of the observed metabolism” value in series [2] (mice) was “NADPH-dependent”.
With `C#Cc1ncc(-c2ncc(-c3ccc4ccccc4c3)n2CC2CCCCC2)n1CCCCCNC` [Dim23, 5-(1-(Cyclohexylmethyl)-2′-ethynyl-5-(naphthalen-2-yl)-1H,3′H-[2,4′-biimidazol]-3′-yl)-N-methylpentan-1-mine], the IC50 on PCSK9/LDLR [3] came to 1180 ± 1060 nM. The “HMG-CoAR activity IC50” value in series [4] is on record as “not active”.
As to `Cn1cnc(-c2ncc(-c3nc(-c4ncc(-c5ccccc5)n4C)cn3C)n2C)c1` [MeIm], the “IC50 value (PCSK9–LDLR interaction)” value on PCSK9/LDLR [5] (in words) is “low-micromolar range”.
`CNCCCCCn1cncc1-c1nc(-c2ncc(-c3ccc(OC)cc3)n2C)cn1CCc1ccccc1` [RIm14]: the “affinity with PCSK9” value at PCSK9/LDLR [5] (in words) is “low micromolar affinity”.
Regarding `CNCCCCCn1cncc1-c1nc(-c2ncc(-c3ccc(OC)cc3)n2C)cn1Cc1ccccc1` [Rim13], at PCSK9/LDLR [5] (in words), the “affinity with PCSK9” value is listed as “low micromolar affinity”. At PCSK9/LDLR [5] (read-out: PCSK9/LDLR interaction IC50), the IC50 was 1600 nM and ~1000 nM.
With “LILPKHSDAD [P5, peptide P5 derived from lupin proteins]”, the IC50 with PCSK9/LDLR [5] (read-out: PCSK9/LDLR PPI IC50) was 1600 nM; in series [6] it was 147000 nM.

(Values after PMC10291552, “Computational Design, Synthesis, and Biological Evaluation of Diimidazole Analogues Endowed with Dual PCSK9/HMG-CoAR-Inhibiting Activity” (Journal of Medicinal Chemistry, 2023).)
